Reference: patent US20220194938A1, “NOVEL COMPOUNDS AND PHARMACEUTICAL COMPOSITIONS THEREOF FOR THE TREATMENT OF INFLAMMATORY DISORDERS” (GALAPAGOS NV, priority 2019, published 2022)

Columns and labels:
human IRAK-4 = target: T1, human IRAK-4 (Homo sapiens, UniProt Q9NWZ3); assay: Phosphorylation IC50 determination for human IRAK-4 (ADP-Glo kinase assay); details: human IRAK-4, RIP140 substrate, Km ATP; read-out: IRAK4 ADPglo biochemical assay IC50
T1 construct: purchased Carna Biosciences 09 145
T1 sequence (Q9NWZ3 1-460): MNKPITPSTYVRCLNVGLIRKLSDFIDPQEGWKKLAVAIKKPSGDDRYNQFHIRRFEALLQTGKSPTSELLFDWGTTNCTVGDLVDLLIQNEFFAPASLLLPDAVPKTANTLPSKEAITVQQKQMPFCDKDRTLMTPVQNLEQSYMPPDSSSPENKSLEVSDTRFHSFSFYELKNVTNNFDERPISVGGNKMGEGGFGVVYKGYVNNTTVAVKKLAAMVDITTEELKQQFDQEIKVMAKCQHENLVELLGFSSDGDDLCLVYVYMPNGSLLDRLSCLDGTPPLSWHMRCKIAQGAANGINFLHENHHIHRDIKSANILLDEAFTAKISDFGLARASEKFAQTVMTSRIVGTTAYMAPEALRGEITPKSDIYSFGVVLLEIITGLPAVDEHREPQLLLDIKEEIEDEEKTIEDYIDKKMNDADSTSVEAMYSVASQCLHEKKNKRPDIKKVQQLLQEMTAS
Procedure: 3.1. Phosphorylation IC50 Determination for Human IRAK-4
The phosphorylation of the substrate RIP140 (SEQ ID1) by IRAK4 at Km ATP was detected with the ADP-Glo Kinase Assay (Promega, Cat #V9103), a luminescent kinase assay which measures the ADP formed from a kinase reaction. (Zegzouti et al. 2009) In a second step the kinase reaction was terminated and all the remaining ATP was depleted. In a final step the ADP was converted into ATP and this newly synthesized ATP was measured by using a luciferase/luciferin reaction with a luminescent reader. The luminescent signal positively correlated with kinase activity, in particular kinase inhibition giving a decrease of the luminescent signal.
For the semi-automated assay, the positive control (100% inhibition) was prepared by diluting 10 mM staurosporine stock mixture (20 μL) in water (3.8 mL) and DMSO (180 μL), thus resulting in a […] staurosporine solution at 1% DMSO (final concentration after further dilution in the kinase reaction).
For the automated assay, no pre-dilution of the 10 mM staurosporine stock was made. 10 mM staurosporine was spotted directly in the assay plate using acoustic dispensing and complemented with DMSO to result in a similar final concentration as mentioned above.
For the semi-automated assay, the negative control (0% inhibition) was prepared by mixing water (3.8 mL) and DMSO (200 μL) resulting in a final concentration of 1% DMSO after further dilution in the kinase reaction. For the automated assay no pre-dilution of DMSO was done. 100% DMSO was spotted directly on the assay plate.
The assay buffer solution was prepared at a concentration corresponding to 5 fold the final (most diluted) assay concentration by mixing a solution of 125 mM TRIS pH 7.5+0.05% Triton X-100+2.5 mM EGTA (5.27 mL) with 1M mgCl2 (72 μL), 1M DTT (57.6 μL), and 200 mM MnCl2 (360 μL).
For example, for the semi-automated method, the enzyme-substrate mixture was prepared by mixing water (3999 μL), assay buffer solution (1380 μL), 1 mM RIP140 (138 μL—SEQ ID1), and 200 ng/mL IRAK 4 (3.45 μL Carna Biosciences, 09 145).
For semi-automated method, the ATP mixture was prepared at a concentration corresponding to 2.5 fold the final (most diluted) assay concentration of the semi-automated method and 1.5 fold the final (most diluted) assay concentration of the automated method. For example, for the semi-automated method, the ATP mixture was prepared by mixing water (4126 μL), assay buffer solution (1380 μL), and 10 mM ATP (13.80 μL).
The assay was performed either in a semi-automated or fully automated manner. The assay volume and the incubation time of the ADP detection were different accordingly the method used.
3.1.3.1. Semi-Automated Assay
The compounds were prepared as a serial dilution of 10 point dose responses with 1/5 dilution steps in 100% DMSO starting from 2 mM highest concentration, diluted 1/20 in water. 1 μL was transferred dry to the assay plates.
On each assay plate 32 wells of each control (positive & negative) were added, followed by 2 μL enzyme-substrate mixture.
The reaction was started by adding 2 μL diluted ATP (final concentration Km ATP) on the assay plates. Plates were centrifuged for a few seconds at 1000 rpm followed by an incubation at r.t. for 120 min.
The reactions were stopped and the unconsumed ATP was depleted by adding 5 μL ADP-glo Reagent (Promega, Cat #V9103) to the reaction. The plates were quickly centrifuged at 1000 rpm and incubated at r.t. for 40 min corresponding to full ATP depletion.
The ADP was converted back to ATP and luciferase and luciferin were introduced to detect ATP by adding 10 μL kinase detection reagent (Promega, Cat #V9103) to the reaction. The plates were centrifuged for a few seconds at 1000 rpm and incubated at r.t. for a further 30 min.
Luminescent read out was performed on an Envision luminescent reader (Perkin Elmer). […]

[1] = test system: pooled cryopreserved hepatocytes; assay: Metabolic stability in hepatocytes (human); type: in vitro ADME; details: 1 μM test compound
Procedure: (§1) 4.6. Metabolic Stability in Hepatocytes
(§2) The aim of this assay is to determine the metabolic stability of the compound in hepatocytes (cryopreserved) of different species. Low hepatocyte stability may result in the formation of unwanted metabolites, high clearance, and therefore is not desirable.
(§3) The decrease in parent was assessed by measuring the percentage remaining by LC-MS/MS analysis.
(§4) A 10 mM stock solution of test compound in DMSO was first diluted in DMSO to 3 mM, and then in modified Krebs-Henseleit buffer (Sigma, K3753) to 5 μM. This compound dilution was added to a suspension of pooled cryopreserved hepatocytes (BioreclamationIVT) at 37° C. under gentle shaking.
(§5) Final reaction conditions were: 1 μM of test compound, 0.03% DMSO, 0.5 million viable hepatocytes/mL, and 75 μL incubation volume.
(§6) Testosterone (1 μM) and 7-hydroxycoumarin (1 μM) were used, respectively as phase I and phase II metabolic reaction controls.
(§7) After 0, 10, 20, 45, 90, 120 and 180 min of incubation, the reaction was terminated with 225 μL of MeCN:MeOH (2:1) containing 100 ng/mL of diclofenac as analytical internal standard. Samples were mixed, centrifuged and the supernatant analyzed by LC-MS/MS.
(§8) The instrument responses (ratios of test compound and internal standard peak areas) were referenced to the zero time point samples (considered as 100%) in order to determine the percentage of compound remaining.
(§9) Plots of percentage compound remaining are used to determine the intrinsic clearance in the hepatocyte incubations using the following equations:
(§10) Scaled Clint[L/h/kg]=Clint[μL/min/10^6 cells]*#(10^6) cells/g liver*60*(1/10^6) Scaled Clint unbound [L/h/kg]=Clint [L/h/kg]/Fu,inc where: fu,inc equals hepatocyte binding, derived from microsomal binding (fu,mic) by following equation: […]

[2] = test system: pooled cryopreserved hepatocytes; assay: Metabolic stability in hepatocytes (mouse); type: in vitro ADME; details: 1 μM test compound
Procedure: as §1, §2, §3, §4, §5, §6, §7, §8, §9, §10

hERG channel = target: T2, hERG channel (Homo sapiens, UniProt Q12809); assay: hERG channel test - manual patch clamp assay; type: cell-based; details: 10 μM, HEK293 cells stably transfected with hERG, tail current
T2 construct: host or cells: HEK293
Procedure: 4.7 hERG Channel Test—Manual Patch Clamp Assay
The aim of this assay is to determine the in-vitro effects of a test compound on hERG current ([…]) expressed in Human Embryonic Kidney (HEK) cells (evaluation of the blocking profile of test substance on the IKr-like potassium current mediated by hERG channel stably transfected in a human cell line), which is linked to cardiac safety.
The test substance is dissolved in pure dimethylsulfoxide (DMSO) by cold stirring to give a stock solution concentrated 333-fold as compared with the highest concentration to be tested. This stock solution is used to prepare the other stock solutions in DMSO. Each stock solution is used to prepare the solutions containing the final concentrations tested by dilution in extracellular solution (0.1, 1, 10 and 100 μM). Final concentration of DMSO should not not exceed 0.3%.
All formulations are prepared in glass containers.
If a slight opalescence persists at the highest concentration, a 50 μM (instead of 100 μM) concentration is tested.
DMSO diluted in extracellular solution (at the different concentrations used in the final test substance solutions) is used as vehicle.
The extracellular solution is constituted as follows (mM): K-gluconate: 4 mM/Na-gluconate: 145 mM/Mg-gluconate: 2 mM/Ca-gluconate: 3.5 mM/HEPES: 5 mM/glucose: 5 mM/mannitol: 20 mM. The pH is adjusted with NaOH to 7.40±0.05.
Human embryonic kidney (HEK293) cells are stably transfected with the hERG clone (Creacell) and are maintained at 37° C. in a 5% CO2/95% air incubator. Cells used for the study are transferred to an experimental chamber of approximately 2 mL which is maintained at a temperature of 35±0.5° C. by a thermoelectric device (Harvard Apparatus: Type TC-344B) and mounted on the platform of an inverted microscope (Olympus: Type IX-51 or Leica DMI3000 B). Cells are continuously superfused with Tyrode's solution constituted as follows (mM): NaCl: 145/KCl: 4/HEPES: 5/glucose: 5/CaCl2:1/MgCl2: 1.
Ionic currents from hERG-transfected cells are measured using the whole cell configuration of the patch clamp technique. Glass pipettes are pulled from borosilicate glass by a vertical puller (Sutter Instruments: Type P30). Pipette tip resistance is approximately 1.5 to 3.5 MΩ when filled with internal solution constituted as follows (mM): K-gluconate: 145/Mg-gluconate: 1/EGTA: 2/HEPES:5/K2ATP: 2.
The pipettes are connected to the input stage of a patch-clamp amplifier (Axon Instruments: Multiclamp 700B-1). Stimulation, data recording and analysis are performed using specialized Axon Instruments software (pClamp 9.2.0. or pClamp 10.3.0.2).
After rupture of the cell membrane (entering whole-cell mode), cells are stimulated every 10 seconds using the following protocol: 500 ms pulse to +10 mV from a holding potential of −80 mV followed by a 500 ms pulse to −40 mV during which tail current is measured.
Once the current under control conditions is stable, recordings are taken before (control) and after addition of the test substance. The effect of the test substance on tail current is monitored continuously until steady-state is reached. The peak tail current amplitude is averaged for 3 stimuli.
The following parameters are measured: • Cell capacitance (pF). • Peak tail current amplitude (pA).
Peak tail current measurements are normalized using the cell capacitance as an index of cell surface.
The cells will be considered as valid if cell capacitance <80 pF, access resistance <20 MΩ and holding current >−200 pA.
Results are expressed as absolute values and as percentage change from control (percentage of tail current inhibition).
The test substance is studied at 4 ascending concentrations on 3 hERG-transfected cells.
The concentration of test substance inducing 50% of inhibition (IC50) of tail current is determined, if possible, from each individual concentration-response curve. The equation is of the following form: […]

T2 sequence (Q12809 whole entry): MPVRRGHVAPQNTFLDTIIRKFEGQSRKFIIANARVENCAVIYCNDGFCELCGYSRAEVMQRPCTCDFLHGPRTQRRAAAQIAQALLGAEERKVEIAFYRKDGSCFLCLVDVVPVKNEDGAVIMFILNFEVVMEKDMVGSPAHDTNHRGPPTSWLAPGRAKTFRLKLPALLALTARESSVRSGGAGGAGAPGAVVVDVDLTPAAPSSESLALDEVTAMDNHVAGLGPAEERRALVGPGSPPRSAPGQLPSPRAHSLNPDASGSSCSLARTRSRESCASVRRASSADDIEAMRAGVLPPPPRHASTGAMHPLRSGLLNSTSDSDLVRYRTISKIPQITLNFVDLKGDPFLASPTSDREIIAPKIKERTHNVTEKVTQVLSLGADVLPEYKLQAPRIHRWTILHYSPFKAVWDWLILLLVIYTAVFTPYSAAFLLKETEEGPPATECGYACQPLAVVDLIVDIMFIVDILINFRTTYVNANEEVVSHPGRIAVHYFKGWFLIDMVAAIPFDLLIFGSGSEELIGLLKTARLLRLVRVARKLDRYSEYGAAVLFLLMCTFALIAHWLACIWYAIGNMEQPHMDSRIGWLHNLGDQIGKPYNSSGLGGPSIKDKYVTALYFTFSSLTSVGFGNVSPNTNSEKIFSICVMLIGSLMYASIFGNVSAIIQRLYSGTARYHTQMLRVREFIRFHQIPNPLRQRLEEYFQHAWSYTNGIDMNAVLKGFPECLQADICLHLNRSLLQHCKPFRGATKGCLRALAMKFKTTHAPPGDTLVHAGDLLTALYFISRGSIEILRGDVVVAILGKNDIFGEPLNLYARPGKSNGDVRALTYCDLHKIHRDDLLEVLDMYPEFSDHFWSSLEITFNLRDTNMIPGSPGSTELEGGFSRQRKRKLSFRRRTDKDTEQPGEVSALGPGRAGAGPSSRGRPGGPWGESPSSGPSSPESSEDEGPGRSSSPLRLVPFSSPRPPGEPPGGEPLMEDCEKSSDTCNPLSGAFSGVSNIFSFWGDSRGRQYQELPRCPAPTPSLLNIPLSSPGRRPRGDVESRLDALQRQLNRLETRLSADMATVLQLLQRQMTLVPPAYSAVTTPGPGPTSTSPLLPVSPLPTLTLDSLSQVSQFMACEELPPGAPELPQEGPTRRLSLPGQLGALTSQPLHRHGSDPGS

Structure (SMILES) | IC50 (human IRAK-4) [µM] | Human (Perc. remaining at 90 min) [1] [%] | Mouse (Perc. remaining at 90 min) [2] [%] | hERG Manual Patch Clamp Single dose PIN (10 μM) (hERG channel) [%]
CN(C)C(=O)c1cc2nc(CCC(C)(C)O)cn2cc1NC(=O)c1cccc(C(F)(F)F)n1 [Compound 27, 2-(3-hydroxy-3-methyl-butyl)-N,N-dimethyl-6-[[6-(trifluoromethyl)pyridine-2-carbonyl]amino]imidazo[1,2-a]pyridine-7-carboxamide] | 0.01 to 0.05 | 95.6 | 108.1 | 
COc1cc2nc(CCC(C)(C)O)cn2cc1NC(=O)c1cccc(Cl)n1 [Compound 34, 6-chloro-N-[2-(3-hydroxy-3-methylbutyl)-7-methoxyimidazo[1,2-a]pyridin-6-yl]pyridine-2-carboxamide] | 0.005 to 0.01 | 49.8 | 6.59 | 
CC(C)(O)CCc1cn2cc(NC(=O)c3cccc(C(F)(F)F)n3)c(C(=O)NCC(F)(F)F)cc2n1 [Compound 41, 2-(3-hydroxy-3-methylbutyl)-N-(2,2,2-trifluoroethyl)-6-(6-(trifluoromethyl)picolinamido)imidazo[1,2-a]pyridine-7-carboxamide] | 0.0001 to 0.005 |  |  | −17

Further lines, with some results ahead:

IC50 (human IRAK-4) [µM] | Human (Perc. remaining at 90 min) [1] [%] | Mouse (Perc. remaining at 90 min) [2] [%] | Structure (SMILES) | hERG Manual Patch Clamp Single dose PIN (10 μM) (hERG channel) [%]
0.01 to 0.05 | 93.5 | 96.25 | CC(C)(O)CCc1cn2cc(NC(=O)c3cccc(C(F)(F)F)n3)c(C(=O)N3CCC3)cc2n1 [Compound 28, N-[7-(azetidine-1-carbonyl)-2-(3-hydroxy-3-methyl-butyl)imidazo[1,2-a]pyridin-6-yl]-6-(trifluoromethyl)pyridine-2-carboxamide] | 
0.01 to 0.05 | 98.85 | 95.2 | CCOc1cc2nc(CCC(C)(C)O)cn2cc1NC(=O)c1cccn(C)c1=O [Compound 29, N-[7-ethoxy-2-(3-hydroxy-3-methyl-butyl)imidazo[1,2-a]pyridin-6-yl]-1-methyl-2-oxo-pyridine-3-carboxamide] | 
0.0001 to 0.005 | 94.65 | 94.55 | CC(C)(O)CCc1cn2cc(NC(=O)c3cccc(C(F)(F)F)n3)c(C(=O)NCCO)cc2n1 [Compound 40, 2-(3-hydroxy-3-methylbutyl)-N-(2-hydroxyethyl)-6-(6-(trifluoromethyl)picolinamido)imidazo[1,2-a]pyridine-7-carboxamide] | 
